# In patent US6958360B2, “Attractant pheromone for the Colorado potato beetle” (The United States of America as represented by the …, priority 2001, dated 2005):
# Legend:
# [1] = tested on: antennal olfactory receptors (short sensillum on the penultimate antennal segment of a CPB); assay: Single sensillum (single cell) recording of receptor neuron response; set-up: species or system Leptinotarsa decemlineata; details: 100 ng source load; solvent control 8
# Protocol: (§1) Sensitivity of antennal olfactory receptors for the racemate and optical isomers of the male specific compound were tested using coupled GC/EAD and single sensillum recording techniques. GC/EAD tests involved injection of 1 μl of serial dilutions of 3,7-dimethyl-2-oxo-oct-6-ene-1,3-diol (CPB I).
# CPB adult antenna = assay: Coupled GC/electroantennogram detection (GC/EAD, EAG); set-up: species or system Leptinotarsa decemlineata
# Protocol: Vertical bars represent standard errors (N=6, 3 males and 3 females).
# GC/EAD analysis of volatile collections: One microlitre samples of volatile collections were injected into a Hewlett Packard™ Model 5890A gas chromatograph (GC) equipped with an HP-5 capillary column (crosslinked 5% PH ME Siloxane; film thickness 0.25 μm; length 30 m; i.d. 0.25 mm) and flame ionization detector (FID). The effluent from the column was split using a Gerstel™ GraphPack-3D/2 splitter with a ratio of ˜1 to the GC (FID): 4 to an electroantennogram preparation of a CPB adult (EAD). The EAD preparation was an adult CPB antenna removed and mounted between two glass capillary electrodes filled with 0.1M NaCl. Ag—AgCl wires in the glass capillaries. An effluent conditioning assembly to carry GC effluent over a CPB antennal preparation, hardware, and software for data collection and analyses using a computer were obtained from SYNTECH (Hilversum, the Netherlands). After an initial temperature of 50° C. held for 2 minutes following injection, the GC oven increased at 15° C./min to 235° C. which was held for 8 minutes.
# as §1
# [2] = tested on: Colorado potato beetle (CPB); assay: Open Y-track olfactometer behavioral bioassay, optical isomers vs solvent control; assay type: in vivo, Leptinotarsa decemlineata; details: for orientation preference (in words): serial source loads 0.0001 to 1.0 μg vs solvent control, male and female
# Protocol: Chemical blends and plant foliage were tested for behavioral activity in an open Y-track olfactometer modified after Visser and Piron (Visser, J. H., and P. G. M. Piron, Proceedings of the Section Experimental and Applied Entomology of the Netherlands Entomological Society Amsterdam, 9: 41-46 (1998)) and described in detail by Dickens (Dickens, J. C., Agric. Forest Entomol., 1: 47-54 (1999)). In brief, odorous stimuli emanating from volatile collections from CPB males feeding on potato plants or the male-specific compound on filter paper discs (2.5 cm dia.; Whatman™ #1 filter paper) in Ehrlenmeyer flasks were delivered to either side of the device. Hydrocarbon free air that was humidified by passing through distilled water carried the odor molecules to either arm of the bioassay apparatus. Treatments were replenished after 30 min of use in the bioassay apparatus. Airflow was regulated to 1 l/min by flowmeters. Experiments were conducted in a darkened room at 22° C. in which the only source of light was that associated with the bioassay device. For all bioassays, at least 20 males and 20 females were tested.
# Volatile collections from male CPB feeding for three hours on a potato plant and serial dilutions of the male specific compound were tested as 10 μl aliquots placed on a filter paper disc as described above. The male specific compound was tested at 1.0 μg/10 μl solvent (hexane) and in a dilution series ranging from 0.0001 to 1.0 μg/10 μl solvent.
# Prior to testing at age 7-14 days, unmated insects were held individually in 5.5 oz. cups, provided with fresh potato foliage on a continuous basis, and maintained under incubator conditions of a 16:8 light:dark cycle, 80-90% R.H., and “day” and “night” temperatures of 25° C. and 23° C., respectively. On the day of testing, insects were transferred to smaller 1 oz. cups and held for 1-3 hrs with moist filter paper but no foliage, then held in darkness for an additional 1-2 hrs.
# Individual testing in a darkened room at 22° C. began by allowing the beetle to climb onto or be placed approximately midway up the vertical rod of the “T.” In response to a positive phototaxis to light from a flashlight mounted above the “T” and negative geotaxis, the beetles generally climbed upward. Once the insect began waving its antennae, presumably in response to test odors, its forward progress continued. Orientation was scored as soon as the test insect had moved completely from the horizontal to one of the 45 extension arms of the bioassay device. Following each test, the bioassay device was cleaned with acetone to remove contamination left by the insect. For any given series of tests, approximately half were done with the treatment and associated test apparatus on one side, and half were done with them on the other side.
# Laboratory bioassays were assessed for significant differences by the hypothesis on binomial proportions based on the standard normal approximation (Brase, C. H., and C. P. Brase (1983), Understanding Statistics, Lexington, Mass.: D. C. Heath).
compound,measurement,setting,value
"CC(C)=CCC[C@](C)(O)C(=O)CO [(S)-CPB I, (S)-3,7-dimethyl-2-oxo-oct-6-ene-1,3-diol]",action potentials during 500 msec following the initial phasic increase,[1],25 action potentials
same,Mean EAG (in words),"CPB adult antenna; 10 ng injection, males and females combined",significantly greater for the (S)-enantiomer than the (R)-enantiomer
same,EAD response to compound in volatile collections (in words),CPB adult antenna; volatiles from potato plants / CPB feeding on plant,a large EAD was consistently present
same,individuals attracted,"[2]; both sexes, from threshold through highest source load tested (1 μg)",80% to 90
same,"behavioral threshold, females","[2]; female CPB, vs solvent control",0.01 μg source load
same,"behavioral threshold, males","[2]; male CPB, vs solvent control",0.001 μg source load
same,orientation preference (in words),[2],attractive
same,orientation preference (in words),[2]; listed as (S)-enantiomer,oriented preferentially
